Among the data in patent publication US20060205949A1, “Crystalline forms of a biphenyl compound” (THERAVANCE, INC., priority 2005, published 2006) are Ki values, retold here.

SMILES strings stand for the structures.

This assay concerns the target T1, hM2 receptor (CHO-K1 cells) (Homo sapiens, UniProt P08172).
T1 construct: expressed in transfected cells; host or cells: CHO-K1 cells
T1 sequence (P08172 1-466): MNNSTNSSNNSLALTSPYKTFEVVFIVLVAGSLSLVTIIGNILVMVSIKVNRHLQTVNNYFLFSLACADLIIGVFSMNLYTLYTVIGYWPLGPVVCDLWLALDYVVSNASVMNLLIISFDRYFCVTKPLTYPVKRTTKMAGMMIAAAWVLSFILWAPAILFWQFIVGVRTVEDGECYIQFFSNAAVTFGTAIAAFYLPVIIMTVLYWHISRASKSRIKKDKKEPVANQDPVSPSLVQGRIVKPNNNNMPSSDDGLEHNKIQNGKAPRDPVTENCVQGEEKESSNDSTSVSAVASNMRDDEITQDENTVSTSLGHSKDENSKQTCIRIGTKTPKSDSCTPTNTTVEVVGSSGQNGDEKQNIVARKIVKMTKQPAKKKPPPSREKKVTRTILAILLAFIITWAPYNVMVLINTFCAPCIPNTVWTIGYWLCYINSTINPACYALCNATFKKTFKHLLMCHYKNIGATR
Briefly: Blockade of agonist-mediated inhibition of cAMP accumulation. Type of assay: cell-based. The following applies: CHO-K1 cells expressing the hM2 receptor; this or a similar assay; read-out: Ki value for blockade of oxotremorine-inhibition of forskolin-mediated cAMP accumulation. Here is the method: In this assay, the functional potency of a test compound was determined by measuring the ability of the test compound to block oxotremorine-inhibition of forskolin-mediated cAMP accumulation in CHO-K1 cells expressing the hM2 receptor. cAMP assays were performed in a radioimmunoassay format using the Flashplate Adenylyl Cyclase Activation Assay System with ^125I-cAMP (NEN SMP004B, PerkinElmer Life Sciences Inc., Boston, Mass.), according to the manufacturer's instructions.
Cells were rinsed once with dPBS and lifted with Trypsin-EDTA solution (0.05% trypsin/0.53 mM EDTA) as described in the Cell Culture and Membrane Preparation section above. The detached cells were washed twice by centrifugation at 650×g for five minutes in 50 mLs dPBS. The cell pellet was then re-suspended in 10 mL dPBS, and the cells were counted with a Coulter ZI Dual Particle Counter (Beckman Coulter, Fullerton, Calif.). […]
To measure the ability of a test compound to block oxotremorine-inhibited AC activity, 25 μL forskolin and oxotremorine (25 μM and 5 μM final concentrations, respectively, diluted in dPBS) 25 μL diluted test compound, and 50 μL cells were added to remaining assay wells. […] Plates were sealed, incubated overnight at room temperature and counted the next morning on a PerkinElmer TopCount liquid scintillation counter (PerkinElmer Inc., Wellesley, Mass.). […]

As usually defined, the Ki is a measure of affinity in units of concentration, obtained from inhibition or displacement. Consider `O=C(CCN1CCC(OC(=O)Nc2ccccc2-c2ccccc2)CC1)NCCCCCNCc1ccc(O)cc1` [compound of formula I, biphenyl-2-ylcarbamic acid 1-{2-[5-(4-hydroxybenzylamino)pentylcarbamoyl]ethyl}piperidin-4-yl ester], for which the Ki was < 10 nM.
